From US11421025B2, “Treatment of IL-17A diseases” (OSAKA UNIVERSITY, priority 2013, dated 2022) come the findings set out here.

What all share (format): in vivo
Test [1] deals with DBA/1 mouse, arthritis caused by Type II collagen. In words: Type II collagen arthritis model mouse, human IL-17A peptide vaccines. The settings on record: Experiment 8, KLH conjugated peptide vaccines (FIG. 22B). The protocol: A vaccine containing a peptide consisting of human IL-17A1 epitope, human IL-17A2 epitope or human IL-17A4 epitope was administered to femoral muscle of each of the following 6-week-old male mice (KLH conjugated) 3 times at 2-week intervals (120 μg/60 μl×1 site/administration). Type II collagen and CFA (complete Freund's adjuvant) were administered at 28 days from the first vaccine administration, and Type II collagen and IFA (incomplete Freund's adjuvant) were administered at 42 days from the first vaccine administration, to induce arthritis. Thereafter, the level of arthritis was observed 3 times per week and scored.
H17 (human IL-17A1 epitope) group: 3 mice
AF4 (human IL-17A4 epitope) group: 3 mice
AF5 (human IL-17A2 epitope) group: 3 mice

For test [2], the system named is human IL-17A epitope (BSA conjugate). In words: Antibody titer by ELISA after human IL-17A epitope vaccines in BALB/c mouse. The settings on record: 6 weeks from the first administration, 3 times at 2-week intervals (FIG. 18, 20, 21). The protocol: Production of plate: Mouse IL-17A1 epitope+BSA conjugate and mouse IL-17A2 epitope+BSA conjugate were dispensed to a 96 well plate at a concentration of 10 μg/ml, and stood at 4° C. overnight. Recombinant mouse IL-17A was dispensed to a 96 well plate at a concentration of 0.25 μg/ml and stood at 4° C. overnight.
The aforementioned plate was washed once with PBS (200 μl), and blocked with 5% skim milk in PBS for 2 hr. The primary antibody (mouse antiserum) was serially diluted with 5% skim milk in PBS, applied by 50 μl to a 96 well plate, and incubated at 4° C. overnight.
The aforementioned plate was washed 7 times with PBS-T (0.05% Tween) (200 μl), the secondary antibody (anti-mouse IgG Ab-HRP-labeled) was diluted 1/1000 (5% skim milk), added by 50 μl, and incubated at ambient temperature for 3 hr. The plate was washed 3 times with PBS-T (0.05% Tween) (200 μl), TMB solution (50 μl) was added, shaded and incubated at ambient temperature for 30 min. 0.5N H2SO4 (50 μl) was added to discontinue the reaction and absorbance was measured at 450 nm.
(§1) A vaccine containing a peptide consisting of the following human IL-17A1 epitope (KLH conjugated) corresponding to mouse IL-17A1 epitope (RPSDYLNR (SEQ ID NO: 5)) was produced, and intradermally administered to BALB/c mouse 3 times at 2-week intervals. The serum antibody titer was measured at 6 weeks from the first administration according to the method described in Example 1.
In addition, a vaccine containing a peptide consisting of two kinds of epitopes (human IL-17A2 epitope, human IL-17A3 epitope) of the following human IL-17A (KLH conjugated) was produced, and intradermally administered to BALB/c mouse 3 times at 2-week intervals. The serum antibody titer was measured at 6 weeks from the first administration according to the method described in Example 1.
Furthermore, a vaccine containing a peptide consisting of the following human IL-17A4, which is a partial sequence of human IL-17A1 epitope (KLH conjugated), was produced. […]

In test [3] the target is T1, mouse IL-17A1 epitope (BSA conjugate) (Mus musculus, UniProt Q62386).
T1 construct: BSA-IL-17A1 (RPSDYLNR) conjugate (No5 BSA conjugate)
As to the kind of experiment: ELISA intersection reactivity of antiserum with mouse IL-17A1 epitope. Conditions: serum of BALB/c mouse immunized with human epitope vaccine (FIG. 19A). On the procedure: The primary antibody (mouse antiserum) was diluted 10-fold, and then serially diluted by 5-fold and used. […]
as §1
A general note: In an ELISA, binding on a coated surface is turned into a signal by an enzyme label.

Ends that are not written are not given here.

On to “human IL-17A1 epitope: vaccine containing a peptide consisting of human IL-17A1 epitope RSSDYYNR (SEQ ID NO: 1), KLH conjugated (also: KLH conjugated; listed as Homo sapiens)”, for which the “clinical score of arthritis” value in test [1] was “suppressive effect on the onset and progression of arthritis”. Further, the serum antibody titer result in test [2] is “increased”. Moreover, the “intersection reactivity of serum with mouse IL-17A1 epitope” value in test [3] is recorded as “showed intersection reactivity”.
On to “human IL-17A2 epitope: vaccine containing a peptide consisting of human IL-17A2 epitope ADGNVDYHMNSVPIQQE (SEQ ID NO: 8), KLH conjugated (also: KLH conjugated; listed as Homo sapiens)”, for which the “clinical score of arthritis” value in test [1] was “suppressive effect on the onset and progression of arthritis”. The serum antibody titer entry in test [2] is “increased”.
For “human IL-17A4 epitope: vaccine containing a peptide consisting of human IL-17A4 epitope SDYYN (SEQ ID NO: 11), KLH conjugated (also: KLH conjugated; listed as Homo sapiens)”, the “clinical score of arthritis” value in test [1] is “suppressive effect on the onset and progression of arthritis”. Further, the serum antibody titer entry in test [2] is “increased”.
